The values that follow are results of earlier work, collected in patent US9511027B1, “Calcium supplement having enhanced absorption” (Delavau L.L.C., priority 2006, dated 2016).

On to `[Ca+2]` [calcium], for which the percent absorption (9 to 18 year olds, Wastney et al. 1996) is reported as 38%. In addition, the elemental calcium absorbed entry (adults, basis of the AIs of 1,000 mg and 1,200 mg, Heaney et al. 1988) is recorded as “about 30%”.
